Results published in patent publication US20250230193A1, “CYCLIC COMPOUND HAVING SELECTIVE KRAS INHIBITORY EFFECT ON HRAS AND NRAS” (CHUGAI SEIYAKU KABUSHIKI KAISHA, priority 2022, published 2025).
*1 amine or outer side, *2 acyl side, *3 side chain or, on linkers, in order; H or OH if unused. Where a SMILES comes first, the peptide text is derived from it. Bridges are numbered along the chain shown (N, C = ends). [ ]: non-standard residue; d: D form. The star is where a group is joined. hPhe(3-Cl-4-CF3) = N[C@@H](CCc1ccc(C(F)(F)F)c(Cl)c1)C(=O)O; X48 = C=CCCN([C@@H](Cc1ccc(C)cc1)C(=O)[*:2])[*:1]; NMeGly(cPent) = CN[C@H](C(=O)O)C1CCCC1; NMeD = CN[C@@H](CC(=O)O)C(=O)O; NMeL = CN[C@@H](CC(C)C)C(=O)O; Morpholide = C1CN(*)CCO1; Ac5c = NC1(C(=O)O)CCCC1; Sar = CNCC(=O)O

Experiments:
[1] = target: GDP-bound NRAS wild-type protein (Homo sapiens, UniProt P01111); experiment: Binding to NRAS by surface plasmon resonance (SPR), Single Cycle Kinetics; conditions: SPR; for NRAS/KRAS (ratio of KD value with respect to NRAS to KD value with respect to KRAS) / NRAS/KRAS (ratio of KD value for NRAS to KD value for KRAS): GDP-bound NRAS wild-type vs GDP-bound KRAS wild-type
Chain of GDP-bound NRAS wild-type protein (P01111 whole entry): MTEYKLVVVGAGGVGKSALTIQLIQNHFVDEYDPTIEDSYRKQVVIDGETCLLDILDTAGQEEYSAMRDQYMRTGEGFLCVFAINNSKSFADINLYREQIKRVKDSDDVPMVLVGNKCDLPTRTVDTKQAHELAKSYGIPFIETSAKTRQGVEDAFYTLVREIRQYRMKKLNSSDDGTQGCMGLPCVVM

[2] = target: GDP-bound HRAS wild-type protein (Homo sapiens, UniProt P01112); experiment: Binding to HRAS by surface plasmon resonance (SPR), Single Cycle Kinetics; conditions: SPR; for HRAS/KRAS (ratio of KD value with respect to HRAS to KD value with respect to KRAS) / HRAS/KRAS (ratio of KD value for HRAS to KD value for KRAS): GDP-bound HRAS wild-type vs GDP-bound KRAS wild-type
Chain of GDP-bound HRAS wild-type protein (P01112 whole entry): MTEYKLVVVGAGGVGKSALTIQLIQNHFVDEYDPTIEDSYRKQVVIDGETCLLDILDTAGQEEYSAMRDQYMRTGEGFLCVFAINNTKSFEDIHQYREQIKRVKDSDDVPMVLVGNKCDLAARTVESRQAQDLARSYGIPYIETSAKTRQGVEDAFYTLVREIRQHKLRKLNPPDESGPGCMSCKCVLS

**Q.** How did the “NRAS/KRAS (ratio of KD value with respect to NRAS to KD value with respect to KRAS)” value [1] turn out when `CC[C@H](C)[C@@H]1NC(=O)[C@H](COC)N(C)C(=O)C[C@@H](C(=O)N(C)CC)N(C)C(=O)[C@H](C2CCCC2)N(C)C(=O)C2(CC(C)(C)C2)NC(=O)[C@@H]2C[C@H](C)CN2C(=O)[C@H](CCc2ccc(C(F)(F)F)c(Cl)c2)NC(=O)CN(C)C(=O)[C@H](Cc2ccc(C)cc2)N2CC/C=C\C[C@@H](C2=O)N(C)C(=O)CN(C)C1=O` [PP2506] was run?
**A.** A (a compound having 10 or more and less than 20 is denoted as A)

**Q.** And the “HRAS/KRAS (ratio of KD value with respect to HRAS to KD value with respect to KRAS)” value [2]?
**A.** A (a compound having 10 or more and less than 20 is denoted as A)

**Q.** Which “NRAS/KRAS (ratio of KD value with respect to NRAS to KD value with respect to KRAS)” value ([1]; KD ratio) does the source give for `CC[C@H](C)[C@@H]1NC(=O)[C@H](CC)N(C)C(=O)C[C@@H](C(=O)N(C)C)N(C)C(=O)[C@H](C2CCCC2)N(C)C(=O)C2(CCC2)NC(=O)[C@H](C)NC(=O)[C@H](CCc2cc(F)c(C(F)(F)F)c(F)c2)NC(=O)CN(C)C(=O)[C@H](Cc2ccc(C(F)(F)F)cc2)N2CC/C=C\C[C@@H](C2=O)N(C)C(=O)CN(C)C1=O` [PP1140] here?
**A.** A (a compound having 10 or more and less than 20 is denoted as A)

**Q.** And the “HRAS/KRAS (ratio of KD value with respect to HRAS to KD value with respect to KRAS)” value ([2]; KD ratio)?
**A.** A (a compound having 10 or more and less than 20 is denoted as A)

**Q.** How did the “NRAS/KRAS (ratio of KD value for NRAS to KD value for KRAS)” value ([1]; KD ratio) turn out when `CCCN(C)C(=O)[C@@H]1CC(=O)N(C)[C@@H](C2CC2)C(=O)N[C@@H]([C@@H](C)CC)C(=O)N(C)CC(=O)N(C)[C@H]2C/C=C\CCN(C2=O)[C@@H](Cc2ccc(C(F)(F)F)cc2)C(=O)N(C)CC(=O)N[C@@H](CCc2cc(F)c(C(F)(F)F)c(F)c2)C(=O)N2C[C@H](OCC)C[C@H]2C(=O)NC2(CCC2)C(=O)N(C)[C@@H](C2CCCC2)C(=O)N1C` [PP1994] was run?
**A.** AA (a compound having 20 or more is denoted as AA)

**Q.** What about the “HRAS/KRAS (ratio of KD value for HRAS to KD value for KRAS)” value ([2]; KD ratio) of the same compound?
**A.** A (a compound having 10 or more and less than 20 is denoted as A)

**Q.** `C=CCCN1C(=O)CN(C)C(=O)CN(C)C(=O)[C@H]([C@@H](C)CC)NC(=O)[C@H](CC(C)C)N(C)C(=O)C[C@@H](C(=O)N2CCOCC2)N(C)C(=O)[C@H](C2CCCC2)N(C)C(=O)C2(CCCC2)NC(=O)[C@@H]2CCCN2C(=O)[C@H](CCc2ccc(C(F)(F)F)c(Cl)c2)NC(=O)CN(C)C(=O)[C@@H]1Cc1ccc(C)cc1` [PP0101] ([NMeL]I[Sar][Sar][X48][Sar][hPhe(3-Cl-4-CF3)]P[Ac5c][NMeGly(cPent)][NMeD]-Morpholide; lactam N-11) was tested. Which “NRAS/KRAS (ratio of KD for GDP-bound NRAS wild-type to KD for KRAS)” value ([1]; KD ratio NRAS/KRAS) did it give?
**A.** B (a compound having 3 or more and less than 10 is denoted as B)

**Q.** What about the “HRAS/KRAS (ratio of KD for GDP-bound HRAS wild-type to KD for KRAS)” value ([2]; KD ratio HRAS/KRAS) of the same compound?
**A.** C (A compound having a KD ratio of 0.1 or more and less than 3 is denoted as C)

**Q.** Which results are given for `CCO[C@@H]1C[C@H]2C(=O)NC3(CCCC3)C(=O)N(C)[C@@H](C3CCCC3)C(=O)N(C)[C@H](C(=O)N3CCOCC3)CC(=O)N(C)[C@@H](CC(C)C)C(=O)N[C@@H]([C@@H](C)CC)C(=O)N(C)CC(=O)N(C)[C@H]3C[C@@H](C)CCN(C3=O)[C@@H](Cc3ccc(C(F)(F)F)cc3)C(=O)N(C)CC(=O)N[C@@H](CCc3cc(F)c(C(F)(F)F)c(F)c3)C(=O)N2C1` [PP1024]?
**A.** NRAS/KRAS (ratio of KD value with respect to NRAS to KD value with respect to KRAS) ([1]; KD ratio): B (a compound having 3 or more and less than 10 is denoted as B); HRAS/KRAS (ratio of KD value with respect to HRAS to KD value with respect to KRAS) ([2]; KD ratio): B (a compound having 3 or more and less than 10 is denoted as B)

**Q.** How did the “NRAS/KRAS (ratio of KD value for GDP-bound NRAS wild-type protein to KD value for KRAS)” value ([1]; KD ratio class) turn out when `CCO[C@@H]1C[C@H]2C(=O)NC3(CCC3)C(=O)N(C)[C@@H](C3CCCC3)C(=O)N(C)[C@H](C(=O)N(C)CCOC)CC(=O)N(C)[C@@H](CC3CC3)C(=O)N[C@@H]([C@@H](C)CC)C(=O)N(C)CC(=O)N(C)[C@H]3C/C=C\CCN(C3=O)[C@@H](Cc3ccc(C(F)(F)F)cc3)C(=O)N(C)CC(=O)N[C@@H](CCc3cc(F)c(C(F)(F)F)c(F)c3)C(=O)N2C1` [PP1318] was run?
**A.** A (a compound having 10 or more and less than 20 is denoted as A)

**Q.** And the “HRAS/KRAS (ratio of KD value for GDP-bound HRAS wild-type protein to KD value for KRAS)” value ([2]; KD ratio class)?
**A.** A (a compound having 10 or more and less than 20 is denoted as A)

**Q.** What does the source list for `CCO[C@@H]1C[C@H]2C(=O)NC3(CC(F)(F)C3)C(=O)N(C)[C@@H](C3CCCC3)C(=O)N(C)[C@H](CC)CC(=O)N(C)[C@@H](CC3CC3)C(=O)N[C@@H]([C@@H](C)CC)C(=O)N(C)CC(=O)N(C)[C@H]3C/C=C\CCN(C3=O)[C@@H](Cc3ccc(C(F)(F)F)cc3)C(=O)N(C)CC(=O)N[C@@H](CCc3cc(F)c(C(F)(F)F)c(F)c3)C(=O)N2C1` [PP1633]?
**A.** NRAS/KRAS (ratio of KD value for NRAS to KD value for KRAS) ([1]; KD ratio): A (a compound having 10 or more and less than 20 is denoted as A); HRAS/KRAS (ratio of KD value for HRAS to KD value for KRAS) ([2]; KD ratio): B (a compound having 3 or more and less than 10 is denoted as B)
